For orientation: boiling point means the temperature at which the vapour pressure of the liquid equals the pressure above it. A word on the melting point: it is the temperature, or range, at which the solid turns liquid.

Conditions in the first data set: not given
For the compound `CCc1cccc(CC)c1N`, the boiling point is 236 °C, the log10 vapour pressure (mmHg) is -2.42 and the melting point came to 3.5 °C.

On to `C1CSCSC1`, for which the melting point came out at 54 °C.

For `CC(C)S(=O)(=O)n1c(N)nc2ccc(/C(=N/O)c3ccccc3)cc21`, the melting point is 198 °C. Regarding `C[C@]12CC[C@H](O)C[C@H]1CC[C@@H]1[C@@H]2[C@H](O)C[C@]2(C)[C@@H](c3ccc(=O)oc3)CC[C@]12O`, the melting point amounted to 254 °C. In the case of `C(CC1CCNCC1)CC1CCNCC1`, the boiling point was 329 °C and the melting point turned out to be 67.1 °C.

Regarding `COC(=O)C1(S(=O)(=O)c2ccccc2)CCC1`, the melting point was found to be 108 °C. The same measure, in the same setting: for `Cc1ccc(C)c(C(=O)O)c1` the value was 132 °C. In the case of `c1cc2cccc3c4cccc5cccc(c(c1)c23)c54`, the log10 biodegradation half-life (days) amounted to 2.95, the log10 vapour pressure (mmHg) was -8.28, the melting point was 274 °C and the ready biodegradability result is “not readily biodegradable”. Regarding `c1cc2c3c(c1)CCC3CCC2` (configuration not stated), the boiling point amounted to 249 °C and the melting point was found to be 12.8 °C. Take `O=C(O)CNCC(=O)O`: the melting point turned out to be 248 °C. As to `Cc1ccc(C)nc1`, the boiling point worked out at 157 °C, the log10 Henry constant (atm·m³/mol) was -5.06, the log10 vapour pressure (mmHg) is 0.526 and the melting point was -16 °C. In turn, `C[C@]12C=CC(=O)C=C1[C@@H](F)C[C@@H]1[C@@H]2[C@@H](O)C[C@@]2(C)[C@H]1CC[C@]2(O)C(=O)CO` returned a melting point of 210 °C. `C=CCCC=C` returned a boiling point of 59.4 °C, a log10 vapour pressure (mmHg) of 2.34 and a melting point of -141 °C. Take `ICI`: the boiling point is 182 °C, the log10 Henry constant (atm·m³/mol) is -3.49, the log10 vapour pressure (mmHg) is 0.0792 and the melting point is 6.1 °C. Compound `CCCCCCC` returned a boiling point of 98.5 °C, a log10 Koa of 2.95, a log10 biodegradation half-life (days) of 0.845 and a log10 vapour pressure (mmHg) of 1.66. Further, the melting point is -90.6 °C and the ready biodegradability result is given as “readily biodegradable”. For the compound `CCCC(C)=C(CC)C(C)=O`, the boiling point came to 190 °C. Compound `CCC(C(=O)NC(=O)NC(C)=O)c1ccccc1` (configuration not stated) showed a melting point of 100 °C. Compound `CCC(C(=O)O)c1ccc(CC(C)C)cc1` (configuration not stated) displayed a melting point of 52 °C. The compound `ClC=C(Cl)Cl` registered a boiling point of 87.2 °C, a log10 Henry constant (atm·m³/mol) of -2.01, a log10 Koa of 2.99 and a log10 Koc (L/kg) of 2. Also, the log10 vapour pressure (mmHg) turned out to be 1.84, the melting point is -84.7 °C and the ready biodegradability entry is “not readily biodegradable”.

Compound `COC(=O)c1ccco1` returned a boiling point of 181 °C.

For `CC(=O)c1cc(C)ccc1O`, the boiling point came to 210 °C and the melting point is 50 °C. Take `C=CCCCCCCCCCCCC`: the boiling point was determined as 233 °C, the log10 vapour pressure (mmHg) is -1.82 and the melting point is -12 °C.

In the case of `O=C(O)CS`, the log10 vapour pressure (mmHg) is -1.06, the melting point was -16.5 °C and the ready biodegradability entry is reported as “readily biodegradable”. On to `O=C1CCc2ccccc2N1`, for which the melting point worked out at 164 °C. `CCCC(=O)OCCOc1ccccc1` returned a boiling point of 251 °C. As to `COCCN`, the boiling point was found to be 95 °C. Turning to `O=C(/C=C/c1cccc([N+](=O)[O-])c1)c1ccccc1`, the melting point came to 146 °C.

`COCc1ccco1` had a boiling point of 132 °C. With `CC(=O)NN`, the melting point stood at 67 °C. Take `COc1cccc(OC)c1C`: the melting point was 40 °C. Regarding `Clc1ccc(C(Cl)c2ccccc2)cc1` (configuration not stated), the ready biodegradability result was “not readily biodegradable”. Consider `OCC1OC(O)C(O)C(O)C1O` (configuration not stated), for which the ready biodegradability entry was “readily biodegradable”. On to `CC(=O)Oc1ccc(C)cc1C`, for which the boiling point worked out at 226 °C.

`CON=C(Cc1cccnc1)c1ccc(Cl)cc1Cl` yielded a log10 vapour pressure (mmHg) of -4.89. The compound `COc1cc(C(=O)c2ccc(Cl)cc2)cc(OC)c1OCCN1CCOCC1` gave a melting point of 91.5 °C. For the compound `C=CCCCCCCCCCCC=C`, the log10 biodegradation half-life (days) worked out at 1.11. In the case of `CCCCCC(=O)O[C@]1(C(C)=O)CC[C@H]2[C@@H]3CCC4=CC(=O)CC[C@@H]4[C@H]3CC[C@@]21C`, the melting point was found to be 124 °C.

`O=C1c2ccccc2C(=O)C1c1ccccc1` displayed a melting point of 150 °C. Regarding `CCCC(C)CC(C)C` (configuration not stated), the boiling point turned out to be 133 °C and the log10 biodegradation half-life (days) came to 0.778. `OCCSCCCCCCCCCCSCCO`: the melting point is 69.5 °C. `Oc1ccc2ncccc2c1` returned a boiling point of 360 °C and a melting point of 195 °C.

Regarding `ClCCCOCCCCl`, the boiling point was determined as 216 °C. In the case of `N#CCCCCCCC#N`, the melting point is -3.5 °C. For `Cc1ccc(F)cc1`, the boiling point turned out to be 117 °C, the log10 vapour pressure (mmHg) was found to be 1.32 and the melting point is -56 °C. Turning to `Clc1ccc2c(c1)Oc1ccccc1O2`, the log10 vapour pressure (mmHg) was -4.89 and the melting point came to 88 °C.

For the compound `NCC1CCCC(CN)C1` (configuration not stated), the boiling point was determined as 220 °C and the ready biodegradability result was “not readily biodegradable”.

Staying with this data set, now noted: fish.
Consider `O=P(OC(CCl)CCl)(OC(CCl)CCl)OC(CCl)CCl`, for which the log10 BCF was 1.08 and the log10 biotransformation half-life (days) is -0.52. With `CCCCc1ccc2cc(C)c(C)cc2c1`, the log10 biotransformation half-life (days) stood at 0.24. `O=[N+]([O-])c1cc(Cl)ccc1Cl` showed a log10 BCF of 2.05 and a log10 biotransformation half-life (days) of 0.56. Take `O=S(=O)([O][Na])c1ccc2cc(O)c(S(=O)(=O)[O][Na])cc2c1`: the log10 BCF stood at 0.3. As for `CC=C1CC2C=CC1C2` (configuration not stated), the log10 BCF came to 2.04 and the log10 biotransformation half-life (days) is -0.56.

As to `COC(=O)c1ccccc1C(=O)c1ccccc1`, the log10 BCF amounted to 1.15 and the log10 biotransformation half-life (days) was -1.3. `c1cc2cccc3c4cccc5cccc(c(c1)c23)c54` had a log10 biotransformation half-life (days) of -0.06. `ClC=C(Cl)Cl` displayed a log10 BCF of 1.2 and a log10 biotransformation half-life (days) of -0.41. With `CC12CCCC1C1CCC3CCCCC3(C)C1CC2` (configuration not stated), the log10 biotransformation half-life (days) worked out at 1.67.

These data come from the OPERA property sets (Mansouri et al. 2018).
